According to ChEMBL document CHEMBL1201862, “PubChem BioAssay data set” (2004):
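48-hour exposure; five concentrations; linearly interpolated endpoints. The concentration for 50% growth inhibition is given as GI50.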 The source made the active and inactive calls. Cut-off read from the data, not from the text of the source: active = GI50 up to about 1.1 µM and inactive = higher.

Experiments:
Test in all cases: NCI tumour cell line growth inhibition, 48 h
[1] = system: 786-0
[2] = system: A498
[3] = system: A549
[4] = system: ACHN
[5] = system: CAKI-1
[6] = system: CCRF-CEM
[7] = system: DLD-1
[8] = system: DMS-114
[9] = system: DMS-273
[10] = system: EKVX
[11] = system: HCC 2998
[12] = system: HCT-116
[13] = system: HCT-15
[14] = system: HL-60
[15] = system: HOP-18
[16] = system: HOP-92
[17] = system: HT-29
[18] = system: K562
[19] = system: KM-20L2
[20] = system: KM12
[21] = system: LOX IMVI
[22] = system: M14
[23] = system: M19-MEL
[24] = system: MOLT-4
[25] = system: Malme-3M
[26] = system: NCI-H226
[27] = system: NCI-H23
[28] = system: NCI-H460
[29] = system: OVCAR-3
[30] = system: OVCAR-4
[31] = system: OVCAR-5
[32] = system: OVCAR-8
[33] = system: RPMI-8226
[34] = system: RXF 393
[35] = system: SF-295
[36] = system: SF-539
[37] = system: SK-MEL-28
[38] = system: SK-MEL-2
[39] = system: SK-MEL-5
[40] = system: SN12C
[41] = system: SNB-19
[42] = system: SNB-75
[43] = system: SNB-78
[44] = system: SR
[45] = system: SW-620
[46] = system: TK-10
[47] = system: U-251
[48] = system: UACC-62
[49] = system: UO-31
[50] = system: XF498

Measured: GI50

S=c1cc(S)c2c(=S)sc3nc4ccccn4c(=S)c3c2s1
inactive: [1] 75.5 µM | [2] > 100 µM | [3] > 100 µM | [4] > 100 µM | [5] > 100 µM | [6] 32.7 µM | [7] > 100 µM | [8] 7.03 µM | [9] 63.4 µM | [10] 81.8 µM | [11] 39.5 µM | [12] 25 µM | [14] 36.1 µM | [15] > 100 µM | [16] > 100 µM | [17] 45.2 µM | [18] 18.5 µM | [19] 46.3 µM | [20] > 100 µM | [21] 47.2 µM | [22] 35.8 µM | [23] 35.5 µM | [24] 27.2 µM | [25] > 100 µM | [26] > 100 µM | [27] > 100 µM | [28] 21.3 µM | [29] 28.2 µM | [30] > 100 µM | [31] > 100 µM | [32] 33.3 µM | [33] > 100 µM | [34] > 100 µM | [35] > 100 µM | [36] 41 µM | [37] > 100 µM | [38] 56.2 µM | [39] 38.5 µM | [40] 48.8 µM | [41] 52.5 µM | [42] > 100 µM | [43] > 100 µM | [44] 25.9 µM | [45] > 100 µM | [46] > 100 µM | [47] 54.5 µM | [48] 36.4 µM | [49] 72.4 µM | [50] > 100 µM
49.8 µM: [13]
